# From publication PMC11305387, “AlphaFold accelerated discovery of psychotropic agonists targeting the trace amine–associated receptor 1” (Science Advances, 2024)
# Several values for one entry are separate records, joined by “and”; a condition that tells them apart may be missing. Identical values can stand only once. Like-named read-outs stand apart in the source and are kept apart here.
# Assays:
# hTAAR1 = molecular target: T1, hTAAR1 (Homo sapiens, UniProt Q96RJ0); test: G protein (mini-Gs) recruitment luminescence complementation assay, agonist mode; type: cell-based
# T1 construct: expressed in transfected cells; host or cells: Expi293F
# T1 sequence (Q96RJ0 1-339): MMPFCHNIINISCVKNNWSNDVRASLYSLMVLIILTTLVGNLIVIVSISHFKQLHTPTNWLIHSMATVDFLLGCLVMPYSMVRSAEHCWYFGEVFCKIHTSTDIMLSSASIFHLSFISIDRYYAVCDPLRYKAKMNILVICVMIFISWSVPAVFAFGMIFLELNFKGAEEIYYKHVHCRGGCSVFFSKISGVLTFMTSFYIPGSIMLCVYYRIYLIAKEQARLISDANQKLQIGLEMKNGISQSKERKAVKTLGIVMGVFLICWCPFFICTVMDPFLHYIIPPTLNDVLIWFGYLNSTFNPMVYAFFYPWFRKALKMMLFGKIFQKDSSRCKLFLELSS
# Protocol: The 62 predicted ligands were purchased from commercial vendors and tested for activity at a concentration of 20 μM in a luminescence complementation–based assay measuring recruitment of mini-Gs to the human TAAR1 ([38]).
# To monitor TAAR1 activation by compounds, we used our previously described system. […] Cells were then reseeded in solid white, 96-well plates (Corning) with 90 μl of cell suspension per well. Luminescence was read using a plate reader for 5 min (SPARK 10 M, Tecan) before the addition of compounds to ensure signal stability. Ten microliters of each compound diluted in DPBS was added, and luminescence from each well was read for 10 min, with 100-ms read time per well. The A2AR counter-screen was performed using the same protocol. In these experiments, the hTAAR1 was replaced by a C-terminally SmBiT-tagged hA2AR construct.
# [1] = system: TAAR1-WT and TAAR1-KO mice; test: Core-body temperature (CBT) measurement; type: in vivo; settings: TAAR1-KO mice, 1 mg/kg (fig. S13A)
# Protocol: Core temperature was determined by a rectal thermoprobe. Compounds or vehicle was administered intraperitoneally. A basal measurement was performed immediately before injection. Measurements were repeated every 30 min for 2 hours. Mean changes in CBT were calculated by subtracting the value from vehicle treated group at the corresponding time point. A washout of 1 week between different doses of compound 65 was applied, and mice were injected starting with the lowest dose first.
# WT and TAAR1-KO mice [2] = test: Pre-pulse inhibition (PPI) behavioral assay; type: in vivo; settings: compound 65 1 mg/kg, risperidone 0.2 mg/kg i.p.
# Protocol: Measurements were performed using startle response chambers (San Diego Instruments, San Diego, CA, USA). Each chamber is sound-isolated and contains a Plexiglass animal enclosure attached to a platform and a loudspeaker that can produce both continuous white noise and acoustic pulses of varying intensities. The animal enclosure is large enough for the animal to turn around and make other movements to reduce restraint stress. Mouse startle responses to acoustic stimuli are transformed by a piezoelectric transducer under the platform into an analog signal. The transducers were calibrated before each experiment using a standardization unit (San Diego Instruments, San Diego, CA, USA), and the speakers were calibrated using a Type 2670 Microphone Preamplifier, a Type 4230 Sound Level Calibrator, and a Type 2610 Measuring Amplifier (Brüel & Kjær, Nærum, Denmark). To habituate the mice to the chambers, they were placed in the enclosure for 5 min, with 65-dB background white noise, on three different days before the start of experiments. PPI measurements were then conducted on each mouse on four occasions separated by 96 hours. The first occasion was a mock test session where all mice were injected with vehicle, serving to reduce the effect of novelty on subsequent sessions. The next three sessions were true test sessions with injection of either compound 65, risperidone, or vehicle. The R package agricolae was used to generate a randomized block design, randomizing treatment order across sex, genotype, and test session.
# Animals were brought to the testing room for habituation 60 min before the starting of tests. Thirty minutes before PPI measurements, mice were injected with either compound 65 (1 mg/kg), risperidone (0.2 mg/kg), or vehicle intraperitoneally. Each test session started with a 5-min background noise (65-dB white noise) habituation period. The background noise continued throughout the test session. The habituation period was followed by four blocks of trials, with the first and last blocks consisting of five pulse-only trials (40-ms, 120-dB pulse). During block 2, five trial types were presented five times each in a pseudo-randomized order. The trial types included pulse only, no stimulus (NOSTIM), and three different pre-pulse trials in which 20 ms pre-pulses of different intensities (68, 71, or 77 dB) preceded the startle pulse (120 dB) by a 100-ms interval. Block 3 contained the same numbers and types of trials as block 2, but in a different pseudorandom order. […] PPI data are shown as PPI%, which was calculated as [1 − (pre-pulse trials/startle-only trials)] × 100. Mean PPI was calculated by adding the average PPI% for all pre-pulse intensities (3, 6, and 12 dB) and dividing it by the number (i.e., 3) of pre-pulse intensities.
# WT and TAAR1-KO mice [3] = test: Open-field test: baseline locomotion and MK-801-induced hyperlocomotion; type: in vivo; settings: compound 65 1 mg/kg, risperidone 0.03 mg/kg
# Protocol: To assess the influence of the compound on baseline locomotion and MK-801–induced hyperlocomotion, mice were subjected to open-field testing on four occasions separated by 96 hours. The first occasion was a mock test session where all mice were injected with vehicle only, serving to reduce the effect of novelty on subsequent sessions. The next three sessions were true test sessions with pretreatment of either compound 65, risperidone, or vehicle, followed by MK-801. The R package agricolae was used to generate a randomized block design, randomizing treatment order across sex, genotype, and test session. After injection with either compound 65 (1 mg/kg), risperidone (0.03 mg/kg), or vehicle intraperitoneally, mice were immediately placed in the open field and recorded for 15 min. They were then injected with MK-801 (0.35 mg/kg intraperitoneal) and recorded again for 60 min. The OFT arena measured 46 cm by 46 cm with gray floor and walls. The brightness at the center of each arena was 30 to 50 lux. The arenas were cleaned with 70% ethanol between each animal. Video from a camera mounted in the ceiling was analyzed using EthoVision XT11.5 (Noldus) software.
# [4] = Tables S3A/S3B, compounds tested at 20 μM, relative to the maximal effect of β-PEA (20 µM)
# [5] = TAAR1, G protein recruitment assay, read-out: pEC50 (converted)
# [6] = relative to the effect of the reference agonist β-PEA, read-out: Emax
SMILES,Emax (hTAAR1; [4]) [%],EC50 (hTAAR1; [5]),Emax (hTAAR1; [6]) [%],other results
Cc1cccc(C2CCCN2)c1 (centres unmarked) [Compound 2],1.3,–,–,–
Cc1nc(C(N)C(C)O)cs1.Cl.Cl (centres unmarked) [Compound 3],2.3,–,–,–
Cl.Cl.c1cnc2c(c1)CNC2 [Compound 4],4.4,–,–,–
Cc1c(C(C)N)sc2ccccc12.Cl (centres unmarked) [Compound 5],8.5,–,–,–
CNC(C)c1nc2ccccc2s1 (centres unmarked) [Compound 6],8.8,–,–,–
CC(N)c1cc2ccccc2s1 (centres unmarked) [Compound 7],14.7,–,–,–
"CCCN(CCC)C1CCc2cccc(O)c2C1 (centres unmarked) [Compound 8-OH-DPAT, 8-hydroxy-2-(di-n-propylamino)tetralin, reference compound]",–,–,–,CBT responsiveness [1]: validated the responsiveness of TAAR1-KO mice
Br.NCc1cccc2c(O)cccc12 [Compound 8],14.9,–,–,–
NC1CSc2ccc(Br)cc21 (centres unmarked) [Compound 9],19.1,–,–,–
CNCc1cc2sccc2n1C [Compound 11],40.4,–,–,–
NCc1noc2ccc(F)cc12 [Compound 13],–,3.16 µM,51.8,–
C[C@H](N)c1coc2ccccc12 [Compound 14],–,7.94 µM,54.3,–
C[C@H](N)c1csc2ccccc12 [Compound 15],–,6.31 µM,57.5,–
C[C@@H](N)c1cc2ccccc2o1 [Compound 16],–,1.58 µM,61.9,–
NC[C@H]1Cc2cc(Br)ccc2O1 [Compound 17],–,6.31 µM,67.8,–
Cc1ccc(-c2cccc3c2CNCC3)o1 [Compound 18],–,0.631 µM,68.7,–
CN[C@H]1CCc2ccccc2C1 [Compound 19],–,3.98 µM,74.5,Emax at 20 µM (hTAAR1; [4]): 72.8%
N[C@H]1COc2cccc(Br)c2C1 [Compound 20],–,3.98 µM,74.5,–
Cc1cc2c(CCN)csc2s1 [Compound 21],–,3.16 µM,75.2,Emax at 20 µM (hTAAR1; [4]): 75.3%

SMILES,Emax (hTAAR1; [4]) [%],EC50 (hTAAR1; [5]),Emax (hTAAR1; [6]) [%],other results
CNCc1cccc2cccnc12 [Compound 22],–,3.16 µM,78.5,–
NCc1nsc2ccccc12 [Compound 23],–,3.98 µM,79.2,–
COc1cccc(C2=CCNC2)c1 [Compound 24],–,1.58 µM,81.4,Emax at 20 µM (hTAAR1; [4]): 81.8%
c1csc([C@H]2CCCNC2)n1 [Compound 25],–,1 µM,95.3,–
NC[C@H]1OCCc2sc(F)cc21 [Compound 26],–,1 µM,95.5,–
Cc1ccc([C@@H]2CNCCO2)o1 [Compound 27],–,0.251 µM,98.7,–
Cc1ccc2c(c1Br)CNC2 [Compound 28],–,0.398 µM,103,–
Brc1csc2c1CNCC2 [Compound 29],–,0.158 µM,106,–
CN1CCC(c2ccc(Br)cc2)C1 (centres unmarked) [Compound 33],0.6,–,–,–
C[C@@H](NCC1CC1)c1coc2ccccc12 [Compound 35],0.9,–,–,–
CC(CNCc1ncc[nH]1)c1ccncc1 (centres unmarked) [Compound 36],1.3,–,–,–
CC(NCCO)c1cccc2c1OCO2 (centres unmarked) [Compound 38],3.5,–,–,–
CCNCc1nc(-c2cccs2)cs1 [Compound 39],3.9,–,–,–
CCN1CCc2ccccc2C(C)C1 (centres unmarked) [Compound 43],7.6,–,–,–
OC(CNC[C@@H]1Cc2ccccc2CO1)C1CC1 (some centres unmarked) [Compound 44],10.0,–,–,–
CN[C@@H](C)CNc1ncnc2sc(C)cc12 [Compound 46],18.8,–,–,–
c1ccc2c(c1)COC2CNCc1ccn[nH]1 (centres unmarked) [Compound 47],21.0,–,–,–
CN1CCC(c2c[nH]c3ccccc23)C1 (centres unmarked) [Compound 49],27.1,–,–,–
CCN1CCCC(c2ccccc2)C1 (centres unmarked) [Compound 52],44.5,–,–,–

SMILES,Emax (hTAAR1; [4]) [%],EC50 (hTAAR1; [5]),Emax (hTAAR1; [6]) [%],other results
c1ccc2cc(CNC3CC3)ccc2c1 [Compound 56],–,12.6 µM,63,–
CCNCc1cccc2c1OCO2 [Compound 57],–,5.01 µM,73.2,–
CC[C@@H](CNCC1=CCCOC1)c1ccccc1 [Compound 58],–,7.94 µM,–,Emax (hTAAR1; relative to the effect of the reference agonist β-PEA): 78.4%
CCNCc1cncc2ccccc12 [Compound 59],–,6.31 µM,78.8,–
CCNCc1cccc2ccoc12 [Compound 60],–,3.16 µM,79.9,–
c1ccc2c(c1)C[C@H]2CNCc1c[nH]cn1 [Compound 61],–,5.01 µM,80.3,–
Brc1cccc2c1CNCC2 [Compound 62],–,0.316 µM,107,–
c1coc(C2CNCCO2)c1 (centres unmarked) [Compound 64],–,0.398 µM,–,fold reduction of agonist potency versus compound 30 (hTAAR1; TAAR1 G protein recruitment): > 10 fold
Cn1cc(C2=CCCNC2)cn1 [Compound 66],–,2 µM,–,–
C1=C(c2ccccc2)CNCC1 [Compound 67],–,–,–,"EC50 (hTAAR1; pEC50, TAAR1, G protein recruitment assay): 0.0251 µM"
COc1cccnc1C1=C(C)CCNC1 [Compound 69],–,3.16 µM,–,–
CC1=C(c2cc[nH]n2)CNCC1 [Compound 71],–,1.58 µM and 0.631 µM,–,–
CC1=C(c2ncco2)CNCC1 [Compound 74],–,0.631 µM,–,–
CC1=C(c2ccccn2)CNCC1 [Compound 75],–,0.501 µM,–,–
CC1=C(c2cccnn2)CNCC1 [Compound 76],–,50.1 µM and ~50.1 µM,–,–
CC1=C(c2ccncc2)CNCC1 [Compound 77],–,7.94 µM,–,–
"Cc1nc2n(c(=O)c1CCN1CCC(c3noc4cc(F)ccc34)CC1)CCCC2 [risperidone, reference compound]",–,–,–,"effect on PPI (WT and TAAR1-KO mice [2]; TAAR1-KO mice): increased PPI; effect on PPI (WT and TAAR1-KO mice [2]; WT mice): general augmentation in PPI compared to the vehicle control; effect on locomotion (WT and TAAR1-KO mice [3]; TAAR1-KO mice): significant reduction in locomotion; effect on MK-801–induced hyperlocomotion (WT and TAAR1-KO mice [3]; WT mice, MK-801 0.35 mg/kg): significant decrease; effect on baseline locomotion (WT and TAAR1-KO mice [3]; WT mice, versus vehicle): notable reduction"
"NCCc1ccccc1 [β-PEA, β-phenethylamine, reference compound]",–,0.251 µM,–,Emax (hTAAR1): 100%
